How the values were obtained:
5-HT2 receptor = target: T1, 5-HT2 receptor (Rattus norvegicus, UniProt P14842); test: 5-HT2 Functional Assay: Phosphoinositide (PI) Turnover Assay; assay type: cell-based; conditions: for EC50: [3H]inositol phosphates production in A7r5 rat vascular smooth muscle cells
T1 construct: A7r5 rat vascular smooth muscle cells; endogenous in cells; host or cells: A7r5 rat vascular smooth muscle cells
Protocol: 5-HT2 Functional Assay: Phosphoinositide (PI) Turnover Assay
The relative agonist activity of serotonergic compounds at the 5-HT2 receptor can be determined in vitro using the ability of the compounds to stimulate the production of [^3H]inositol phosphates in [^3H]myo-inositol-labeled A7r5 rat vascular smooth muscle cells by their ability to activate the enzyme phospholipase C. These cells are grown in culture plates, maintained in a humidified atmosphere of 5% CO2 and 95% air and fed semi-weekly with Dulbecco's modified Eagle medium (DMEM) containing 4.5 g/l glucose and supplemented with 2 mM glutamine, 10 μg/ml gentamicin, and 10% fetal bovine serum. For the purpose of conducting the phosphoinositide (PI) turnover experiments, the A7r5 cells are cultured in 24-well plates as previously [J. Pharmacol. Expt. Ther., 286, 411 (1998)]. Confluent cells are exposed for 24–30 hrs to 1.5 μCi [^3H]-myo-inositol (18.3 Ci/mmol) in 0.5 ml of serum-free medium. Cells are then rinsed once with DMEM/F-12 containing 10 mM LiCl prior to incubation with the test agent (or solvent as the control) in 1.0 ml of the same medium for 1 hr at 37° C., after which the medium is aspirated and 1 ml of cold 0.1 M formic acid added to stop the reaction. The chromatographic separation of [3H]-inositol phosphates ([^3H]-IPs) on an AG-1-X8 column is performed as previously described [J. Pharmacol. Expt. Ther. 286, 411 (1998)] with sequential washes with H2O and 50 mM ammonium formate, followed by elution of the total [^3H]-IPs fraction with 1.2 M ammonium formate containing 0.1 M formic acid. The eluate (4 ml) is collected, mixed with 15 ml scintillation fluid, and the total [^3H]-IPs determined by scintillation counting on a beta-counter. Concentration-response data are analyzed by the sigmoidal fit function of the Origin Scientific Graphics software (Microcal Software, Northampton, Mass.) to determine agonist potency (EC50 value) and efficacy (Emax). Serotonin (5-HT) is used as a positive control (standard) agonist compound and the efficacy of test compounds is compared to that of 5-HT (set at 100%). The concentration of the compound needed to stimulate the production of [^3H]-IPs by 50% of the maximum response is termed the EC50 value.

[1] = A7r5 cells, efficacy compared to that of 5-HT (set at 100%)

T1 sequence (P14842 whole entry): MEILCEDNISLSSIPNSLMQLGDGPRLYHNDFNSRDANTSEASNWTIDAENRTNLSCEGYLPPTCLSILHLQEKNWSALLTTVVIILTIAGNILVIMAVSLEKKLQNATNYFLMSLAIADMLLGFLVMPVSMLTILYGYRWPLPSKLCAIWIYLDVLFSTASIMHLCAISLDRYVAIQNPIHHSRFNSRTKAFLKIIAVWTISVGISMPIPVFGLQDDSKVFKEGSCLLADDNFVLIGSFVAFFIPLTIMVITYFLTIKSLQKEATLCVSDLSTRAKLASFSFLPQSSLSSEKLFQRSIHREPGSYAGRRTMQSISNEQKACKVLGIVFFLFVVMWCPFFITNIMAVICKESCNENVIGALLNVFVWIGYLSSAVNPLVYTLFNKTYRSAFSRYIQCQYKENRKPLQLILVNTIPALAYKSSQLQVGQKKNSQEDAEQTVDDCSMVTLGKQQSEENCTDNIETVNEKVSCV

| Structure (SMILES) | Emax (5-HT2 receptor; [1]) | EC50 (5-HT2 receptor) | melting point | Efficacy (Emax, %) (5-HT2 receptor; [1]) |
| --- | --- | --- | --- | --- |
| CC(N)Cn1nc(Cl)c2ccc(O)cc21 (centres unmarked) [Example 6, 1-(2-Aminopropyl)-3-chloro-1H-indazol-6-ol] | 84% | 1050 nM | – | – |
| Cc1nn(CC(C)N)c2cc(O)ccc12.O=C(O)/C=C/C(=O)O (centres unmarked) [Example 2, 1-(2-Aminopropyl)-3-methyl-1H-indazol-6-ol Fumarate] | 87% | 483 nM | 166 to 168 °C | – |
| COc1ccc2c(Cl)nn(CC(C)N)c2c1 (centres unmarked) [Example 5, 2-(3-Chloro-6-methoxy-indazol-1-yl)-1-methyl-ethylamine] | 64% | 541 nM | – | – |
| COc1ccc2cnn(CC(C)N)c2c1 (centres unmarked) [Example 4, 2-(6-Methoxy-indazol-1-yl)-1-methyl-ethylamine] | 73% | 243 nM | – | – |
| COc1ccc2c(C)nn(CC(C)N)c2c1.O=C(O)/C=C/C(=O)O (centres unmarked) [Example 1, 2-(6-Methoxy-3-methyl-indazol-1-yl)-1-methylethylamine Fumarate] | 71% | 578 nM | 150 to 152 °C | – |
| CC(N)Cn1ncc2ccc(OC(=O)C(C)(C)C)cc21.O=C(O)/C=C/C(=O)O (centres unmarked) | – | – | 180 to 182 °C | – |
| CC(N)Cc1c[nH]c2ccc(O)cc12 (stereo not drawn) [α-Methylserotonin, reference compound] | – | – | – | 104% |
